{"source": "patent US7939567B2", "about": "“Dextromethorphan-based method for treating acne” (Blue Blood Biotech Corp., priority 2006, dated 2011)", "key": {"Propionibacterium acnes": {"test_system": "Propionibacterium acnes", "experiment": "MIC test of P. acnes (broth dilution, OD595)", "format": "cell-based", "parameters": "key: +: Growth Inhibition; —: No Growth Inhibition", "conditions": "anaerobic, 37° C., 96 hours", "method": "Prepared DM stock solution in 500,000 ppm (50%). Added 0.25 g DM into […] DMSO and stirred until mixed well. Then serial diluted 500,000 ppm DM. Centrifuged 5 ml Propionibacterium acnes in RCM (Reinforced Clostridial Medium) culture. Adjusted concentration of bacteria cell in medium by 20 times dilution about OD595=0.1×10^6 CFU/ml. Dispersed 200 μl bacteria cell in medium in aliquot to each 96-well plate. Mixed medium including bacteria cell and 2 μl DM, triplicate tests at each concentration. Bacteria cultured under anaerobic at 37° C. for 96 hours and measured the value at OD595. MIC meant the lowest concentration of anti-bacterial agent that sufficient to suppress the growth of bacteria (e.g. growth inhibition)."}, "P. acnes": {"test_system": "P. acnes", "experiment": "DM disc diffusion on P. acnes lawn", "format": "cell-based, Propionibacterium acnes", "conditions": "37° C., 96 hours", "method": "Spread 0.1 ml medium including bacteria cells which OD595 value was about 0.1×10^6 CFU/ml onto RCM agar plate. Pasted 0.8 cm filter paper and dropped 20 μl of DM into it. Bacteria were cultured under anaerobic at 37° C. for 96 hours and the size of the antibiotic circle was measured."}, "Bacteroides fragilis": {"test_system": "Bacteroides fragilis", "experiment": "MIC test of B. fragilis (thioglycollate broth)", "format": "cell-based", "parameters": "key: +: Growth Inhibition; —: No Growth Inhibition", "conditions": "anaerobic, 24 h", "method": "Bacteroides fragilis growing in 18-24 hours in the anaerobic thioglycollate broth was used to formulate the suspension of bacteria cells of McFarland 0.5. Diluted 0.5 g/ml DMSO stock solution with anaerobic Thioglycollate broth. Added 1000 μl anaerobic Thioglycollate broth into 1000 μl of DM diluent with 1:1 ratio, and then put into the anaerobic incubator to incubate for 24 h."}, "E. coli": {"test_system": "E. coli", "experiment": "DM disc diffusion on E. coli lawn", "format": "cell-based", "conditions": "37° C., 96 hours", "method": "Base for antimicrobial disk diffusion Susceptibility Testing is made of Mueller Hinton II agar obtained from Becton, Dickinson and Company, France.\n(§1) Prepared Mueller-Hinton-II-agar by suspending 38 g of the powder in 1L of double-distilled water. Autoclaved the agar at 121° C. for 15 min. t The agar was poured into each agar plate and waited for solidifying. E. coli of 1×10^5 CFU in 100 μl medium was spread on to the agar plate and were grown for 96 hours."}, "Staphylococcus aureaus": {"test_system": "Staphylococcus aureaus", "experiment": "DM disc diffusion on S. aureus lawn", "format": "cell-based", "conditions": "S. aueaus lawn, 37° C., 96 hours", "method": "Based for antimicrobial disk diffusion Susceptibility Testing is Mueller Hinton II agar obtained from Becton, Dickinson and Company, France.\nas §1, with “min.” for “min. t”, “solidifying. S. aureaus” for “solidifying. E. coli”, “of 10^5” for “of 1×10^5”, “medium were” for “medium was”, “on” for “on to”"}, "TNF-α": {"test_system": "TNF-α", "experiment": "LPS-induced macrophage release of TNF-α (THP-1, ELISA)", "format": "cell-based, human", "conditions": "for concentration of TNF-α in the medium of THP-1 cells after LPS stimulation: pretreated 1 hour, various concentrations, then LPS 24 hours", "method": "(§2) The monocytic THP-1 cells were cultured and differentiated into macrophages. The macrophages were pretreated with various concentrations of Dextromethophan or naloxone for 1 hour and subsequently incubated with lipopolysaccharide (LPS) for 24 hours.\n(§3) RPMI 1640 medium, phorbol 12-myristate-13-acetate (PMA), LPS (Escherichia coli 0111:B4) and naloxone were purchased from Sigma. The human THP-1 monocytic cell line was purchased from Food Industry Research and Development Institute, Hsin Chu, Taiwan. Levels of tumor necrosis factor-α (TNF-α), interleukin-6 (IL-6) and monocyte chemoattractant protein-1 (MCP-1) in medium were determined with monoclonal antibody based ELISA kits purchased from R&D Systems (Minneapolis, Minn., USA), and all animal experiments were approved by the Institutional Animal Care and Use Committee.\nThe THP-1 cells were grown in RPMI-1640 medium containing 10% fetal bovine serum at 37° C. in 5% CO2. The cells were differentiated to macrophages after treatment with 100 nM PMA to the culture for 24 hours. The cell suspension (5×10^5) was added in 0.5 mL into each well of the tissue culture plates. LPS was dissolved in sterile water and stored at −70[…] in aliquots. In treatment group, the THP-1 cell culture was pretreated for 1 hour with various concentrations of dextromethorphan or naloxone and followed by treatment with 10 μg/mL LPS for up to 24 hours. […] The levels of TNF-α, IL-6 and MCP-1 in the supernatants were determined using ELISA kits.\n(§4) The inflammatory reaction can be inhibited by dextromethorphan at less than 0.01 μM. The THP-1 cell treated with LPS at 1 Unit/ml in the presence of dextromethorphan for 24 hrs and the TNF-α and IL-6 released in the culture medium was measured with ELISA (FIG. 1). […] The results are expressed as mean±SD of 3 experiments. ** p<0.01 and *** p<0.001 are compared with the LPS-treated cultures.\n(§5) Effect of naloxone treatment on the LPS-induced macrophage release of TNF-α (A), IL-6 (B) and MCP-1 (C). […] The results are expressed as mean±SD of 3 experiments. * p<0.05; ** p<0.01; *** p<0.001 compared with the LPS-treated cultures (FIG. 2)."}, "IL-6": {"test_system": "IL-6", "experiment": "LPS-induced macrophage release of IL-6 (THP-1, ELISA)", "format": "cell-based, human", "conditions": "pretreated 1 hour, various concentrations, then LPS 24 hours", "method": "as §2, §3\n(§6) The THP-1 cells were grown in RPMI-1640 medium containing 10% fetal bovine serum at 37° C. in 5% CO2. […] The levels of TNF-α, IL-6 and MCP-1 in the supernatants were determined using ELISA kits.\nas §4, with “cultures. […]” for “cultures.”"}, "MCP-1": {"test_system": "MCP-1", "experiment": "LPS-induced macrophage release of MCP-1 (THP-1, ELISA)", "format": "cell-based, human", "conditions": "pretreated 1 hour, various concentrations, then LPS 24 hours", "method": "as §2, §3\nas §6, with “CO2. The cells were differentiated to macrophages after treatment with 100 nM PMA to the culture for 24 hours.” for “CO2.”\nas §5"}, "TNF-a": {"test_system": "TNF-a", "conditions": "LPS-induced endotoxemia in rodents; mitigation of circulatory failure and mortality; cited from earlier work"}, "[1]": {"conditions": "humans, oral dosage form, either alone or with quinidine; cited from earlier work"}}, "data": [{"molecule": "COc1ccc2c(c1)[C@]13CCCC[C@@H]1[C@H](C2)N(C)CC3", "note": "[DM, (+)-3-methoxy-17-methyl-9a,13a,14a-morphinan]", "values": [{"measurement": "Growth Inhibition", "setting": "Propionibacterium acnes; DM 125 ppm (0.0125%)", "result": "—"}, {"measurement": "Growth Inhibition", "setting": "Propionibacterium acnes; DM 250 ppm (0.025%)", "result": "—"}, {"measurement": "Growth Inhibition", "setting": "Propionibacterium acnes; DM 500 ppm (0.05%)", "result": "+"}, {"measurement": "Growth Inhibition", "setting": "Propionibacterium acnes; DM 1000 ppm (0.1%)", "result": "+"}, {"measurement": "Growth Inhibition", "setting": "Propionibacterium acnes; DM 1250 ppm (0.125%)", "result": "+"}, {"measurement": "Growth Inhibition", "setting": "Propionibacterium acnes; DM 2500 ppm (0.25%)", "result": "+"}, {"measurement": "Growth Inhibition", "setting": "Propionibacterium acnes; DM 5000 ppm (0.5%)", "result": "+"}, {"measurement": "Diameter of clear zone", "setting": "P. acnes; 2.5% DM, Disc No. 6, anaerobic", "result": 12, "unit": "mm"}, {"measurement": "Diameter of clear zone", "setting": "P. acnes; 5% DM, Disc No. 5, anaerobic", "result": 34, "unit": "mm"}, {"measurement": "Growth Inhibition", "setting": "Bacteroides fragilis; DM 500 ppm (0.05%)", "result": "—"}, {"measurement": "Growth Inhibition", "setting": "Bacteroides fragilis; DM 1000 ppm (0.1%)", "result": "—"}, {"measurement": "Growth Inhibition", "setting": "Bacteroides fragilis; DM 1250 ppm (0.125%)", "result": "+"}, {"measurement": "Growth Inhibition", "setting": "Bacteroides fragilis; DM 2500 ppm (0.25%)", "result": "+"}, {"measurement": "Growth Inhibition", "setting": "Bacteroides fragilis; DM 5000 ppm (0.5%)", "result": "+"}, {"measurement": "Diameter of clear zone", "setting": "E. coli; 2.5% DM", "result": 9.5, "unit": "mm"}, {"measurement": "Diameter of clear zone", "setting": "E. coli; 5% DM", "result": 13, "unit": "mm"}, {"measurement": "Diameter of clear zone", "setting": "E. coli; 10% DM", "result": 18, "unit": "mm"}, {"measurement": "Diameter of clear zone", "setting": "Staphylococcus aureaus; 5% DM", "result": 10, "unit": "mm"}, {"measurement": "Diameter of clear zone", "setting": "Staphylococcus aureaus; 10% DM", "result": 14, "unit": "mm"}, {"measurement": "concentration at which the inflammatory reaction can be inhibited", "setting": "TNF-α; THP-1 cell treated with LPS for 24 hrs, TNF-α and IL-6 released in medium measured with ELISA", "result": "less than 0.01 μM"}, {"measurement": "concentration of TNF-α in the medium of THP-1 cells after LPS stimulation", "setting": "TNF-α", "result": "significantly reduced"}, {"measurement": "concentration of IL-6 in the medium of THP-1 cells after LPS stimulation", "setting": "IL-6", "result": "significantly reduced"}, {"measurement": "concentration of MCP-1 in the medium of THP-1 cells after LPS stimulation", "setting": "MCP-1", "result": "significantly reduced"}, {"measurement": "effect on TNF-a, NO and superoxide anion", "setting": "TNF-a", "result": "inhibits"}, {"measurement": "well tolerated oral dosage", "setting": "[1]", "result": "up to 120 milligrams (mg) per day"}]}, {"molecule": "C=CCN1CC[C@]23c4c5ccc(O)c4O[C@H]2C(=O)CC[C@@]3(O)[C@H]1C5", "note": "[naloxone, 17-allyl-4,5α-epoxy-3,14-dihydroxymorphinan-6-one]", "values": [{"measurement": "concentration of TNF-α in the medium of THP-1 cells after LPS stimulation", "setting": "TNF-α", "result": "significantly reduced"}, {"measurement": "concentration of IL-6 in the medium of THP-1 cells after LPS stimulation", "setting": "IL-6", "result": "significantly reduced"}, {"measurement": "concentration of MCP-1 in the medium of THP-1 cells after LPS stimulation", "setting": "MCP-1", "result": "significantly reduced"}]}, {"molecule": "Oc1cc(Cl)ccc1Oc1ccc(Cl)cc1Cl", "note": "[Triclosan]", "values": [{"measurement": "Diameter of clear zone", "setting": "P. acnes; 0.1% Triclosan, Disc No. 8, anaerobic", "result": 30, "unit": "mm"}]}]}
